The values below come from patent publication US20260274804A1, “PHENOLIC COMPOUNDS BLOCKING Nav 1.7 AND/OR Nav 1.8, PROCESSES FOR THE PREPARATION THEREOF, COMPOSITIONS, USES, METHODS OF TREATMENT USING SAME AND KITS” (Eurofarma Laboratórios S.A., priority 2023, published 2026).

Usually IC50 stands for the concentration needed to halve the response being measured.

Assay [1] has as its target T1, human sodium channels Nav 1.7 (Homo sapiens, UniProt Q15858).
T1 construct: expressed in transfected cells
The assay can be described thus: Automated whole-cell voltage-clamp (ScreenPatch 384P) on CHO cells stably expressing Nav 1.7. To be noted: inactivation step -40 mV 8 s, test pulse 0 mV, room temperature, exposure at least five minutes, read-out: Nav1.7 IC50. It counts as cell-based. As for the experimental part:
(§1) Biological assays were performed on Chinese hamster ovary (CHO) cells that express human sodium channels Nav 1.8 or Nav 1.7 in a stable manner.
(§2) The experimental protocol voltage-clamp using the whole cell configuration was established on the automated ScreenPatch® 384P platform (SP384PE, Nanion Technologies, Livingston, NJ) and the results were recorded with a Nanion 384-well Patch Clamp chip (NPC) (Nanion Technologies, Livingston, NJ).
(§3) Formula I compounds were diluted in eight concentrations in the extracellular solution composed of physiological saline solution, buffered with HEPES (mM): NaCl, 137; KCl, 4; CaCl2, 3.8; MgCl2, 1; HEPES, 10; Glucose, 10; pH 7.4. The […], 50; CsF, 90; MgCl2, 5; EGTA, 5; HEPES, 10; pH 7.2. The duration of exposure of each compound with cells expressing Nav 1.7 or Nav 1.8 was at least five minutes, and the assays were performed at room temperature.
(§4) The measurements of the sodium currents of Nav 1.8 and Nav 1.7 were obtained using the voltage protocol described below.
(§5) A holding voltage of −100 mV was established followed by an inactivation voltage step at −40 mV for 8 seconds, followed by a step of −100 mV for 20 ms, followed by a 20 ms step for 10 mV for Nav 1.8 or 0 mV for Nav 1.7 (TP1A) before returning to the holding voltage of −100 mV.
(§6) The protocol was repeated at a frequency of 0.05 Hz and the amplitude of the current was quantified throughout the recording of the TP1A phase. The variation in the peak current amplitude was evaluated according to the Formula described below, after exposing the cells expressing the channels to each concentration of the different compounds:
(§7) [formula] • wherein […] and ITP1A,molecule represent the peaks of sodium current input into TP1A before exposure to the compound and in the presence of the compound, respectively.
(§8) The decrease in the peak current amplitude, after the exposure of the cells to the compounds, was used to calculate the percentage of relative blockage of the channels in relation to the positive control according to the Formula below:
(§9) [formula] • where % V and % CP represent the means of the values of current inhibition with a vehicle (DMSO) and positive controls, respectively. The sodium currents of the positive control were considered as 100%:
(§10) [formula] • wherein [Test] represents the concentration of the molecule evaluated, IC50 is the concentration of the compound that generates half of the maximum inhibition, N is Hill's coefficient, and % Blockage' is the percentage of sodium channel current (Nav 1.8 and Nav 1.7) inhibited at each concentration of the molecule evaluated. Data were obtained by nonlinear regression (nonlinear least squares) with XLfit for Excel (Microsoft, Redmond, WA).
(§11) The compounds were tested in at least one assay to obtain the value of CI50. For compounds that were tested in two or more assays, the results are described as the means of the CI50 values.

Assay [2] deals with T2, human sodium channels Nav 1.8 (Homo sapiens, UniProt Q9Y5Y9).
T2 construct: expressed in transfected cells
T2 sequence (Q9Y5Y9 whole entry): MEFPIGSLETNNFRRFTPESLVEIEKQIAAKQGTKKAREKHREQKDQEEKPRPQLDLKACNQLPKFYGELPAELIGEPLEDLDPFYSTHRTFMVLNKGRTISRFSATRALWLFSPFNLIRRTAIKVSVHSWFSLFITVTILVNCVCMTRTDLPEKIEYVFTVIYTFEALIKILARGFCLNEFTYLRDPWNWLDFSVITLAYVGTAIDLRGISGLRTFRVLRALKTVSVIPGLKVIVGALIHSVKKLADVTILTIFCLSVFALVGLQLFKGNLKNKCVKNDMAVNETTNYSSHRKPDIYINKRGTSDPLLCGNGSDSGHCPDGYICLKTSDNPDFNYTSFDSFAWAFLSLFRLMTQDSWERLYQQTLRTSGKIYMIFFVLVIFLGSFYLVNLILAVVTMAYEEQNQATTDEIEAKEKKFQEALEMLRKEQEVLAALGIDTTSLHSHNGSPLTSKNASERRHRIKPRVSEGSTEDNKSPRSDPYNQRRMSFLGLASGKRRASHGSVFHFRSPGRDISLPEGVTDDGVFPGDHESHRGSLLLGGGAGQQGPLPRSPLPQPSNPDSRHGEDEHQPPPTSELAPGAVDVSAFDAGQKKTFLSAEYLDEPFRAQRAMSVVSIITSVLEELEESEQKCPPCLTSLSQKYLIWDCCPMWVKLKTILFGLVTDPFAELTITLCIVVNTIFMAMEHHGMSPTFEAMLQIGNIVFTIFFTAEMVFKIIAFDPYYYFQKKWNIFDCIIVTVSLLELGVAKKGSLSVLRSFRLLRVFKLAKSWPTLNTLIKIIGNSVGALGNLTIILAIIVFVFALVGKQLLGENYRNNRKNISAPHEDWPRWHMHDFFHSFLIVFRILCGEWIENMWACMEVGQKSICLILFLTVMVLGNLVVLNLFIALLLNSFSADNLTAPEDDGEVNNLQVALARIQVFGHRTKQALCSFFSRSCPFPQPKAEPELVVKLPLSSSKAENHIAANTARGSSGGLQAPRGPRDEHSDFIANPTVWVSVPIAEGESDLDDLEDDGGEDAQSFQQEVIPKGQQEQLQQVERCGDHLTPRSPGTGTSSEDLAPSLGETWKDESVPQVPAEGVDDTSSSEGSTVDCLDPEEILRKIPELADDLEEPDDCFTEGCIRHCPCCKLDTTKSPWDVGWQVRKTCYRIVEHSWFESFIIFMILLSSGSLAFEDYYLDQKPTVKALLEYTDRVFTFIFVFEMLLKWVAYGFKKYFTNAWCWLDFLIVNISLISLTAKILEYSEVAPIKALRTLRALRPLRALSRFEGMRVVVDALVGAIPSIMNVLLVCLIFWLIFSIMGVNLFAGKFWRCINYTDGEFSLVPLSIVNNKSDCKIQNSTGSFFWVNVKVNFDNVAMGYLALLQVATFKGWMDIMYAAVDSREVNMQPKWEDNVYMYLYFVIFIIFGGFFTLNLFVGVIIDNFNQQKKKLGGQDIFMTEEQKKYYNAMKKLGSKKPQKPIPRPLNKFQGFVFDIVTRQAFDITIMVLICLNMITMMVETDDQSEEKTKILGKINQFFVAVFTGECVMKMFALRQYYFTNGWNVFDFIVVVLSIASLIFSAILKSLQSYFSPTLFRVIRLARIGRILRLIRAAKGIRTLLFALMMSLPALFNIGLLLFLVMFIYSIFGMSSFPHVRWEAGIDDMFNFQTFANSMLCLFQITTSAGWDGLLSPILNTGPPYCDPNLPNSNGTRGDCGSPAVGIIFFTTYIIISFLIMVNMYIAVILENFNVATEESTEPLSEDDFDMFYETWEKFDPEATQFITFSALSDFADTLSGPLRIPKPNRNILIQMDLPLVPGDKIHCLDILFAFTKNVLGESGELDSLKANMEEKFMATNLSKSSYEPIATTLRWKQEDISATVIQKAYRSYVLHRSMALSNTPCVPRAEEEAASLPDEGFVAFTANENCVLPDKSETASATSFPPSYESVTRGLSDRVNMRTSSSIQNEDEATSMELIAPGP
The assay can be described thus: Automated whole-cell voltage-clamp (ScreenPatch 384P) on CHO cells stably expressing Nav 1.8. To be noted: inactivation step -40 mV 8 s, test pulse 10 mV, room temperature, exposure at least five minutes, read-out: Nav1.8 IC50. The format is cell-based. As for the experimental part:
as §1, §2, §3, §4, §5, §6, §7, §8, §9, §10, §11

T1 sequence (Q15858 whole entry): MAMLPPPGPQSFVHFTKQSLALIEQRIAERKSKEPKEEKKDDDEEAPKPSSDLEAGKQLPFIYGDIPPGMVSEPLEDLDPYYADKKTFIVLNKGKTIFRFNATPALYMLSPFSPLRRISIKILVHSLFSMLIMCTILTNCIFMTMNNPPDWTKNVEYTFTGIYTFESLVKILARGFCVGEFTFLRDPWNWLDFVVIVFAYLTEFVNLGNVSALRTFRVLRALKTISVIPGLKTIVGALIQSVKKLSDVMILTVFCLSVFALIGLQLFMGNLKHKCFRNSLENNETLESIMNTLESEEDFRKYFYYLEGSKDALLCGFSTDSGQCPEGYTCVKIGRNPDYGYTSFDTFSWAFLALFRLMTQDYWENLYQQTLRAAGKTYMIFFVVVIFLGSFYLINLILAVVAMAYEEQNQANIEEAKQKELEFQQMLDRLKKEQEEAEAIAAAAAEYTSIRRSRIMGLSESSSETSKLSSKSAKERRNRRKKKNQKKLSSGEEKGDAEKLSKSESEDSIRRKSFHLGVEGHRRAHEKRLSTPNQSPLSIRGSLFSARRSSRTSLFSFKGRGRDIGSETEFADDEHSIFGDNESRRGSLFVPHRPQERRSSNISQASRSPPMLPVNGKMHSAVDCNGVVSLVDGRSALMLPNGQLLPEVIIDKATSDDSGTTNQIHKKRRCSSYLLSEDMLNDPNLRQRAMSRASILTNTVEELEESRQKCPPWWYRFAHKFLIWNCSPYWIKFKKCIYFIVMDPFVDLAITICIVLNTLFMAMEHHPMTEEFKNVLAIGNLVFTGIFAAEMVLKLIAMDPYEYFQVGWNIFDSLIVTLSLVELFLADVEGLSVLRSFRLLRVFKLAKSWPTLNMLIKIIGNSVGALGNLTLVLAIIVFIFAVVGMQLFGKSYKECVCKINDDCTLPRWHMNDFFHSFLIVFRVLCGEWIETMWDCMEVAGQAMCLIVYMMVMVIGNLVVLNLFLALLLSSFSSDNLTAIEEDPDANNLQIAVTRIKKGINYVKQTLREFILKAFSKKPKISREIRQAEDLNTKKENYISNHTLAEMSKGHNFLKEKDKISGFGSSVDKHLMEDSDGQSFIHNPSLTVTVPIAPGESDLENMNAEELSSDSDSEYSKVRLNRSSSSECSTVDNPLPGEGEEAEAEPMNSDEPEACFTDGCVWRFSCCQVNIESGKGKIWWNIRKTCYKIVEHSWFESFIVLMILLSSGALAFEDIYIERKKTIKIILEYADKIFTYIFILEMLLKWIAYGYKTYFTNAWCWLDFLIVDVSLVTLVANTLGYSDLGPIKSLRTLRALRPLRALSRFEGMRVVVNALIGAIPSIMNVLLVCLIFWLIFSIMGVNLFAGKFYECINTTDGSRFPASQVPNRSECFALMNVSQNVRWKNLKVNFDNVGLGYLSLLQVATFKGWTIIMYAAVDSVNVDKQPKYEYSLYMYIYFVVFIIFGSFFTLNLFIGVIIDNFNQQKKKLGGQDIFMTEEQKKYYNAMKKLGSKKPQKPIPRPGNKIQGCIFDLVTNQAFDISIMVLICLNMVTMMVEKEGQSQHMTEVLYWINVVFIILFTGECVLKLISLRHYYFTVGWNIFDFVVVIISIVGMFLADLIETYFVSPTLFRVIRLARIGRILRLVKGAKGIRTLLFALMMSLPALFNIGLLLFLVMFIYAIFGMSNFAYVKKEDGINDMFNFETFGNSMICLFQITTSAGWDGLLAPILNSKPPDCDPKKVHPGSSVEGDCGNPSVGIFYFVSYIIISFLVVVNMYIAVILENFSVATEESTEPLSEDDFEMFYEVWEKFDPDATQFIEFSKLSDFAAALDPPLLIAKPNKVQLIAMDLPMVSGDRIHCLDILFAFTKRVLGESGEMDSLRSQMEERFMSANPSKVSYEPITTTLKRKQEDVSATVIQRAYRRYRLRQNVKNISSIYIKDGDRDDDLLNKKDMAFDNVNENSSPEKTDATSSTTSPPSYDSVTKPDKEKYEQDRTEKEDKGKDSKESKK

Regarding `COc1ccc(-c2cncc(C(=O)N/N=C/c3cccc(O)c3)n2)cc1` [Compound 23, (E)-N′-(3-hydroxybenzylidene)-6-(4-methoxyphenyl)pyrazine-2-carbohydrazide], the IC50 in assay [1] and in assay [2] was above 1 µM each time.

As to `CCOc1ccc(-c2cncc(C(=O)N/N=C/c3cc(O)ccc3F)n2)cc1` [Compound 27, (E)-6-(4-ethoxyphenyl)-N′-(2-fluoro-5-hydroxybenzylidene)pyrazine-2-carbohydrazide], the IC50 in assay [1] is above 1 µM; in assay [2] it was 0.5 to 1 µM.

As for `COc1ccc(-c2cnc(O)c(C(=O)N/N=C/c3cc(C)cc(C)c3)n2)cc1` [Compound 15, (E)-N′-(3,5-dimethylbenzylidene)-3-hydroxy-6-(4-methoxyphenyl)pyrazine-2-carbohydrazide], the IC50 in assay [1] and in assay [2] was above 1 µM throughout.

As for `CCOc1ccc(-c2cncc(C(=O)N/N=C/c3cncc(O)c3)n2)cc1` [Compound 29, (E)-6-(4-ethoxyphenyl)-N′-((5-hydroxypyridine-3-yl)methylene)pyrazine-2-carbohydrazide], the IC50 in assay [1] and in assay [2] was above 1 µM each time.

For `COc1ccc(-c2cncc(C(=O)N/N=C/c3ccc(O)cc3)n2)cc1` [Compound 22, (E)-N′-(4-hydroxybenzylidene)-6-(4-methoxyphenyl)pyrazine-2-carbohydrazide], the IC50 in assay [1] and in assay [2] was above 1 µM in each case.

On to `CCOc1ccc(-c2cncc(C(=O)N/N=C/c3cc(OC)ccc3F)n2)c(O)c1` [Compound 8, (E)-6-(4-ethoxy-2-hydroxyphenyl)-N′-(2-fluoro-5-methoxybenzylidene)pyrazine-2-carbohydrazide], for which the IC50 is above 1 µM in assay [1] and 0.5 to 1 µM in assay [2].

For `COc1ccc(-c2cncc(C(=O)N/N=C/c3cc(O)cc(OC)c3)n2)cc1` [Compound 21, (E)-N′-(3-hydroxy-5-methoxybenzylidene)-6-(4-methoxyphenyl)pyrazine-2-carbohydrazide], the IC50 in assay [1] and in assay [2] was above 1 µM in each case.

Turning to `COc1ccc(-c2cncc(C(=O)N/N=C/c3cc(O)cc(O)c3)n2)cc1` [Compound 20, (E)-N′-(3,5-dihydroxybenzylidene)-6-(4-methoxyphenyl)pyrazine-2-carbohydrazide], the IC50 in assay [1] and in assay [2] was above 1 µM in each case.

With `COc1ccc(-c2cncc(C(=O)N/N=C/c3ccccc3O)n2)cc1` [Compound 24, (E)-N′-(2-hydroxybenzylidene)-6-(4-methoxyphenyl)pyrazine-2-carbohydrazide], the IC50 in assay [1] and in assay [2] was above 1 µM throughout.

In the case of `COc1cc(/C=N/NC(=O)c2cncc(-c3ccc(O)cc3)n2)cc(OC)c1` [Compound 1, (E)-N′-(3,5-dimethoxybenzylidene)-6-(4-hydroxyphenyl)pyrazine-2-carbohydrazide], the IC50 in assay [1] and in assay [2] was above 1 µM throughout.

For the compound `COc1ccc(-c2nc(C(=O)N/N=C/c3cc(OC)cc(OC)c3)cnc2O)cc1` [Compound 12, (E)-N′-(3,5-dimethoxybenzylidene)-5-hydroxy-6-(4-methoxyphenyl)pyrazine-2-carbohydrazide], the IC50 in assay [1] and in assay [2] was above 1 µM throughout.

With `CCOc1ccc(-c2cncc(C(=O)N/N=C/c3cc(C)cc(O)c3)n2)cc1` [Compound 26, (E)-6-(4-ethoxyphenyl)-N′-(3-hydroxy-5-methylbenzylidene)pyrazine-2-carbohydrazide], the results for the IC50 in assay [1] and in assay [2] were above 1 µM and below 0.5 µM, respectively.

With `COc1ccc(-c2cncc(C(=O)N/N=C/c3cc(C)cc(O)c3)n2)cc1` [Compound 25, (E)-N′-(3-hydroxy-5-methylbenzylidene)-6-(4-methoxyphenyl)pyrazine-2-carbohydrazide], the figures for the IC50 in assay [1] and in assay [2] were above 1 µM and 0.5 to 1 µM, respectively.

Turning to `COc1ccc(-c2nc(C(=O)N/N=C/c3cc(C)cc(C)c3)cnc2O)cc1` [Compound 13, (E)-N′-(3,5-dimethylbenzylidene)-5-hydroxy-6-(4-methoxyphenyl)pyrazine-2-carbohydrazide], the IC50 in assay [1] and in assay [2] was above 1 µM in each case.

Take `CCOc1ccc(-c2cnc(O)c(C(=O)N/N=C/c3cccc(OC)c3)n2)c(F)c1` [Compound 19, (E)-6-(4-ethoxy-2-fluorophenyl)-3-hydroxy-N′-(3-methoxybenzylidene)pyrazine-2-carbohydrazide]: the IC50 in assay [1] and in assay [2] was above 1 µM each time.

`CCOc1ccc(-c2nc(C(=O)N/N=C/c3cccc(OC)c3)cnc2O)c(F)c1` [Compound 18, (E)-6-(4-ethoxy-2-fluorophenyl)-5-hydroxy-N′-(3-methoxybenzylidene)pyrazine-2-carbohydrazide]: the IC50 in assay [1] and in assay [2] was above 1 µM each time.

Turning to `COc1cc(/C=N/NC(=O)c2cncc(-c3ccc(OC)cc3O)n2)cc(OC)c1` [Compound 5, (E)-N′-(3,5-dimethoxybenzylidene)-6-(2-hydroxy-4-methoxyphenyl)pyrazine-2-carbohydrazide], the IC50 in assay [1] was above 1 µM; in assay [2], below 0.5 µM.

Turning to `CCOc1ccc(-c2nc(C(=O)N/N=C/c3cc(OC)cnc3F)cnc2O)cc1` [Compound 16, (E)-6-(4-ethoxyphenyl)-N′-((2-fluoro-5-methoxypyridine-3-yl)methylene)-5-hydroxypyrazine-2-carbohydrazide], the IC50 in assay [1] and in assay [2] was above 1 µM each time.

With `Cc1cc(C)cc(/C=N/NC(=O)c2cncc(-c3ccc(O)cc3)n2)c1` [Compound 2, (E)-N′-(3,5-dimethylbenzylidene)-6-(4-hydroxyphenyl)pyrazine-2-carbohydrazide], the IC50 in assay [1] and in assay [2] was above 1 µM throughout.

For the compound `COc1ccc(-c2cnc(O)c(C(=O)N/N=C/c3cc(OC)cc(OC)c3)n2)cc1` [Compound 14, (E)-N′-(3,5-dimethoxybenzylidene)-3-hydroxy-6-(4-methoxyphenyl)pyrazine-2-carbohydrazide], the half-inhibitory concentration (IC50) in assay [1] and in assay [2] was above 1 µM each time.

With `CCOc1ccc(-c2cncc(C(=O)N/N=C/c3cc(OC)cnc3F)n2)c(O)c1` [Compound 9, (E)-6-(4-ethoxy-2-hydroxyphenyl)-N′-((2-fluoro-5-methoxypyridine-3-yl)methylene)pyrazine-2-carbohydrazide], the IC50 in assay [1] was above 1 µM; in assay [2] it was below 0.5 µM.

For the compound `COc1ccc(F)c(/C=N/NC(=O)c2cncc(-c3ccc(O)cc3)n2)c1` [Compound 3, (E)-N′-(2-fluoro-5-methoxybenzylidene)-6-(4-hydroxyphenyl)pyrazine-2-carbohydrazide], the IC50 in assay [1] and in assay [2] was above 1 µM in each case.

Turning to `COc1cc(/C=N/NC(=O)c2cncc(-c3ccc(OC)c(O)c3)n2)cc(OC)c1` [Compound 6, (E)-N′-(3,5-dimethoxybenzylidene)-6-(3-hydroxy-4-methoxyphenyl)pyrazine-2-carbohydrazide], the IC50 in assay [1] and in assay [2] was above 1 µM throughout.

For `O=C(N/N=C/c1cncc(O)c1)c1cncc(-c2ccc(O)cc2)n1` [Compound 4, (E)-6-(4-hydroxyphenyl)-N′-((5-hydroxypyridine-3-yl)methylene)pyrazine-2-carbohydrazide], the IC50 in assay [1] and in assay [2] was above 1 µM in each case.

For `COc1ccc(-c2cncc(C(=O)N/N=C/c3cc(C)cc(C)c3)n2)c(O)c1` [Compound 7, (E)-N′-(3,5-dimethylbenzylidene)-6-(2-hydroxy-4-methoxyphenyl)pyrazine-2-carbohydrazide], the concentration for half-maximal inhibition (IC50) in assay [1] is above 1 µM; in assay [2] it was below 0.5 µM.

Take `CCOc1ccc(-c2cncc(C(=O)N/N=C/c3cc(OC)ccc3O)n2)cc1` [Compound 28, (E)-6-(4-ethoxyphenyl)-N′-(2-hydroxy-5-methoxybenzylidene)pyrazine-2-carbohydrazide]: the values for the IC50 in assay [1] and in assay [2] were above 1 µM and below 0.5 µM, respectively.
